{"source": "patent US12409168B2", "about": "“Formulations of aminopenicillin and methods for solubilizing aminopenicillin” (VETERINARY PHARMACY CORPORATION, priority 2023, dated 2025)", "origin": "cited, not measured here", "data": [{"smiles": "CC1(C)S[C@@H]2[C@H](NC(=O)[C@H](N)c3ccc(O)cc3)C(=O)N2[C@H]1C(=O)O", "note": "[Amoxicillin]", "values": [{"measurement": "degradation at 24 hours", "setting": "0.00015 mg/ml, 24 hours", "result": "no degradation"}, {"measurement": "degradation to (potency remaining) at 24 hours", "setting": "0.42 mg/ml, buffered solution, pH 8.04, 24 hours", "result": 73, "unit": "%"}]}]}
